Measurements taken from article PMC6216040, “Repurposing of an old drug: In vitro and in vivo efficacies of buparvaquone against Echinococcus multilocularis” (International Journal for Parasitology: Drugs and Drug …, 2018).
Like-named read-outs stand apart in the source and are kept apart here.

System: E. multilocularis metacestodes
Assay: PGI-assay: drug-induced damage on in vitro cultured metacestodes (Pathogen Box screening cascade and EC50)
Format: cell-based, Echinococcus multilocularis
Conditions: for PGI release, % of the Tx-100 control, 5d / PGI release, % of the Tx-100 control, 12d / cytotoxicity at 10 µM: 10 µM, singlets; for PGI release, % of Tx-100 control, average, 5d / PGI release, % of Tx-100 control, average, 12d: confirmatory screening at 10 µM in triplicates, values as % of Tx-100 control; for cytotoxicity at 10 µM: Echinococcus multilocularis
[1] = 120 h, 5 days of incubation, read-out: PGI release, % of the Tx-100 control, 5d
[2] = 288 h, 12 days of incubation, read-out: PGI release, % of the Tx-100 control, 12d

Structure (SMILES)	PGI release, % of the Tx-100 control, 5d (5 days of incubation) [%]	PGI release, % of the Tx-100 control, 12d (12 days of incubation) [%]	PGI release, % of Tx-100 control, average, 5d (5 days of incubation) [%]	PGI release, % of Tx-100 control, average, 12d (12 days of incubation) [%]	cytotoxicity at 10 µM [1] [%]	cytotoxicity at 10 µM [2] [%]
CCOc1ccc(OCC(=O)Nc2cc(C)cc(C)c2)cc1 [MMV676470]	-0.69	-0.73	–	–	–	–
COc1cccc(OC)c1C(=O)Nc1ccc(Cl)c(-c2nc3ccccc3s2)c1 [MMV676472]	5.75	51.73	0.98	2.19	–	–
COc1ccccc1OCCCCn1c(C2CC2)nc2ccccc21 [MMV676474]	1.01	0.22	–	–	–	–
Cc1cc(C)cc(COc2ccc3c(C)c(CCC(=O)O)c(=O)oc3c2C)c1 [MMV676476]	0.11	10.97	–	–	–	–
CCc1c(C)nc(-n2nc(C)cc2NC(=O)c2ccccc2SC)[nH]c1=O [MMV676477]	-3.90	30.66	-0.18	2.18	–	–
O=C(C1CCN(c2nnc(-n3cccc3)s2)CC1)N1CCC(Cc2ccccc2)CC1 [MMV676478]	-4.04	0.80	–	–	–	–
COC(=O)c1c(NC(=O)c2cc3ccccc3oc2=O)sc2c1CCN(Cc1ccccc1)C2 [MMV676480]	-0.80	1.41	–	–	–	–
O=C(Nc1n[nH]c(=S)s1)c1cc(Br)ccc1Cl [MMV676492]	5.74	1.03	–	–	–	–
O=C(Nc1nnc(-c2ccc(Cl)s2)o1)c1ccc(Cl)s1 [MMV676501]	1.15	0.52	–	–	–	–
Cc1ccc2oc(-c3cc(NC(=O)Cc4ccccc4)ccc3Cl)nc2c1 [MMV676509]	-0.17	0.19	–	–	–	–
O=C(Nc1nc(-c2ccccn2)cs1)c1cncn1-c1ccccc1 [MMV676512]	0.19	0.30	–	–	–	–
O=C(c1cc2ccccc2o1)N1CCN(Cc2ccc3c(c2)OCO3)CC1 [MMV676520]	-0.72	-0.39	–	–	–	–
Nc1cccnc1Nc1ccc(Cl)cc1 [MMV676524]	0.13	0.29	–	–	–	–
COc1ccc(-c2cc(NC(=O)c3ccc(F)cc3Cl)ccc2OC)cc1 [MMV676526]	1.97	-2.37	–	–	–	–
Cc1cccc(NC(=O)c2cc(S(=O)(=O)N(C)c3ccc(F)cc3)ccc2Cl)n1 [MMV676528]	-0.45	0.71	–	–	–	–
COCC(C)NC(=O)CSc1ncnc2sc(-c3ccccc3)cc12 (stereo not shown) [MMV676536]	3.74	50.91	0.53	0.42	–	–
O=C(NCCc1c[nH]c2ccccc12)c1cc2ccccc2oc1=O [MMV676539]	0.63	17.31	–	–	–	–
COc1ccc(Nc2ccccc2NC(=O)c2ccc(=O)[nH]c2)cc1 [MMV676554]	0.17	3.85	–	–	–	–
Cc1nnc(NCc2cccc(Cl)c2)c2ccccc12 [MMV676555]	-3.14	1.45	–	–	–	–
CC1=NN(c2nc3ccccc3s2)C(=O)C1Cc1cccc2ccccc12 (stereo not shown) [MMV676558]	13.65	78.65	-0.26	0.35	–	–
COc1ccc(-c2nc(-c3cccc(NC(=O)Cc4ccc(F)cc4)c3)no2)cc1OC [MMV676571]	-1.41	1.58	–	–	–	–
O=C(NC1=NCCS1)c1sc2cc(F)ccc2c1Cl [MMV676584]	-1.36	1.53	–	–	–	–
Nc1c2c(nc3sc4c(c13)CCCC4)CCCC2 [MMV676588]	-0.72	10.95	–	–	–	–
O=C(CCC1CCCCC1)Nc1cccc(-c2nnc(-c3ccco3)o2)c1 [MMV676589]	-1.81	2.20	–	–	–	–
CCCn1nnc(NC(=O)COc2ccc(C3CCCCC3)cc2)n1 [MMV676597]	0.61	0.33	–	–	–	–
CC(C)(C)n1nc(Cc2cccc3ccccc23)c2c(N)ncnc21 [MMV676599]	-0.93	-0.99	–	–	–	–
CO[C@@H](C(=O)N1Cc2n[nH]c(NC(=O)c3ccc(N4CCN(C)CC4)cc3)c2C1)c1ccccc1 [MMV676600, Danusertib, reference compound]	–	–	–	–	-0.38	-0.2

Structure (SMILES)	PGI release, % of the Tx-100 control, 5d (5 days of incubation) [%]	PGI release, % of the Tx-100 control, 12d (12 days of incubation) [%]	PGI release, % of Tx-100 control, average, 5d (5 days of incubation) [%]	PGI release, % of Tx-100 control, average, 12d (12 days of incubation) [%]	cytotoxicity at 10 µM [1] [%]	cytotoxicity at 10 µM [2] [%]
CNC(=O)c1nn(C)c2c1C(C)(C)Cc1cnc(Nc3ccc(N4CCN(C)CC4)cc3)nc1-2 [MMV676602]	-1.52	120.02	0.52	12.12	–	–
C[C@H]1COC2(CCN(c3nc(=O)c4cc(C(F)(F)F)cc([N+](=O)[O-])c4s3)CC2)O1 [MMV676603]	-4.72	4.80	–	–	–	–
Cc1ncc(-c2ccnc(Nc3ccc(S(C)(=O)=O)cc3)n2)n1C(C)C [MMV676604]	-0.0262	0.36	–	–	–	–
C[C@]1(O)C[C@@H](c2nc(-c3ccc4ccc(-c5ccccc5)nc4c3)c3c(N)nccn32)C1 [MMV676605, Linsitinib, reference compound]	–	–	–	–	-0.48	0.47
O=C(c1ccc(NCCO)cc1)C1C[C@H]1c1ccc(Cl)cc1 (stereo partly shown) [MMV676877]	0.56	-0.18	–	–	–	–
CCn1cnc2c(Nc3cc(F)cc(F)c3)nc(C#N)nc21 [MMV676881]	0.06	-0.62	–	–	–	–
NC(=O)c1cc(-c2ccsc2)ccc1OCCOc1ccccc1 [MMV687138]	-3.72	0.14	–	–	–	–
CCCCS(=O)(=O)Nc1ccc2cnn(C)c2c1 [MMV687145]	-0.86	-2.20	–	–	–	–
Cc1cc(C)c2cc(C(=O)NC3CCCCCCC3)[nH]c2c1 [MMV687146]	-4.26	-3.34	–	–	–	–
COc1ccc(Cn2cnc3c(-c4ccco4)nc(Cl)nc32)cc1 [MMV687170]	0.26	-3.06	–	–	–	–
O=C(C1CCN(c2cc(-n3cccc3)ncn2)CC1)N1CCc2ccccc2C1 [MMV687172]	1.69	-1.50	–	–	–	–
CCc1ccc([C@@H]2C[C@H](C(F)(F)F)n3ncc(C(=O)NCc4ccc(OC)cc4)c3N2)cc1 [MMV687180]	-2.14	-5.92	–	–	–	–
COc1ccc2nc(C)cc(OCC(=O)Nc3ccccc3OC)c2c1 [MMV687188]	0.23	4.44	–	–	–	–
COc1ccc2nc(C)cc(OCC(=O)NCc3ccccc3)c2c1 [MMV687189]	-4.79	3.07	–	–	–	–
CC(C)(C(=O)Nc1ccc(F)cc1)n1cc(-c2ccccc2F)cn1 [MMV687239]	0.07	101.93	-0.64	-1.06	–	–
NC(=O)c1cc(Br)ccc1OCCOc1ccccc1 [MMV687243]	1.02	-1.47	–	–	–	–
CN1CCN(S(=O)(=O)c2ccc(-c3ccc4c(Nc5ccc6n[nH]nc6c5)ccnc4c3)cc2)CC1 [MMV687246]	-0.71	-0.69	–	–	–	–
Nc1nc2cc(-c3cncc(Oc4ccc(F)cc4)c3)ccc2[nH]1 [MMV687248]	2.44	3.04	–	–	–	–
Cn1c(=O)c2c(S(C)(=O)=O)snc2n(C)c1=O [MMV687251]	5.41	6.23	–	–	–	–
CCCCc1ccc(C(=O)Nc2nccc3ccccc23)nc1 [MMV687254]	-0.76	-1.68	–	–	–	–
CC(C)=CCC/C(C)=C\CNCCNC1C2CC3CC(C2)CC1C3 (stereo not shown) [MMV687273]	8.55	5.83	–	–	–	–
CCc1nc2ccc(Cl)cn2c1C(=O)NCc1ccc(N2CCC(c3ccc(OC(F)(F)F)cc3)CC2)cc1 [MMV687696, Telacebec, Q203, reference compound]	-1.48	7.51	–	–	–	–
O=C(NCc1cc(Cl)cc(Cl)c1)c1c(C(F)(F)F)nc2ccccn12 [MMV687699]	0.90	18.76	–	–	–	–
Nc1ncnc2c1ncn2[C@@H]1O[C@H](COS(=O)(=O)NC(=O)c2ccccc2O)[C@@H](O)[C@H]1O [MMV687700, Salicyl-AMS, reference compound]	-0.78	-1.38	–	–	–	–
COc1cccc(-c2nc3c(N4CCCC4)cccc3n2CC2CCCN2)n1 (stereo not shown) [MMV687703]	1.13	-0.35	–	–	–	–
c1ccc(Oc2ccc(-c3cc(N4CCNCC4)[nH]n3)cc2)cc1 [MMV687706]	-0.18	0.70	–	–	–	–
